BindingDB's records for doi:10.1016/j.chembiol.2006.05.015 (The Scripps Research Institute, 2006)
pIC50: −log10 of the molar value.

Assays:
[1] = target: T1, Tyrosine-protein kinase ABL1 [1-999,Q252H] (Homo sapiens, UniProt P00519, Q252H); experiment: Biochemcial Assay; settings: pH 7.5
T1 construct: 1-999
Description: An in vitro kinase assay using phosphorylated recombinant human Abl kinase domains to phosphorylate a peptide substrate.

[2] = target: T1, Tyrosine-protein kinase ABL1 [1-999,Q252H]; experiment: Biochemcial Assay; settings: pH 7.5; remark: listed apart in the source
Description: An in vitro kinase assay using dephophorylated conformationally inactive Abl kinase was obtained by treating pure recombinant Abl with Yersinia […] phosphatase from Calbiochem.

pIC50 [1] | pIC50 [2] | SMILES
< 5.30 | < 5.30 | O=[N+]([O-])c1ccc(Oc2ncnc3[nH]ccc23)cc1 [Type I progenitor, 4]
< 5.30 | 6.43 | O=C(Nc1ccc(Oc2ncnc3[nH]ccc23)cc1)Nc1cccc(C(F)(F)F)c1 [Type II inhibitor, 5]
< 5.30 | < 5.30 | O=C(Cc1cccc(C(F)(F)F)c1)Nc1ccc(Oc2ncnc3[nH]ccc23)cc1 [Type II inhibitor, 6]
< 5.30 | 6.81 | Cc1cc(NC(=O)c2cccc(C(F)(F)F)c2)ccc1NC(=O)c1cc2cnc3[nH]ccc3c2s1 [Type II inhibitor, 8]
< 5.30 | < 5.30 | Cc1cc(N(C)C(=O)c2cccc(C(F)(F)F)c2)ccc1NC(=O)c1cc2cnc3[nH]ccc3c2s1 [Type II inhibitor, 10]

Second part, the compound before the results:

SMILES | pIC50 [1] | pIC50 [2]
Cc1ccc(Cl)cc1Nc1nccc(-c2cccnc2)n1 [Type I progenitor, 1] | < 5.30 | < 5.30
O=C(Nc1ccc(N2CCOCC2)cc1)c1cc2cnc3[nH]ccc3c2s1 [Type I progenitor, 7] | < 5.30 | < 5.30
CC(O)c1cccc(Nc2ncc3cc(-c4c(Cl)cccc4Cl)c(=O)n(C)c3n2)c1 (stereo unspecified) [Type I progenitor, 11] | 8.24 | 8.24
Cc1ccc(NC(=O)c2cccc(C(F)(F)F)c2)cc1Nc1nccc(-c2cccnc2)n1 [Type II inhibitor, 2] | 6.82 | 8.30
Cc1ccc(N(C)C(=O)c2cccc(C(F)(F)F)c2)cc1Nc1nccc(-c2cccnc2)n1 [Type II inhibitor, 3] | < 5.30 | 5.87
CC(O)c1cccc(Nc2ncc3cc(-c4cc(NC(=O)c5cccc(C(F)(F)F)c5)ccc4Cl)c(=O)n(C)c3n2)c1 (stereo unspecified) [Type II inhibitor, 12] | 7.71 | 7.57
CC(O)c1cccc(Nc2ncc3cc(-c4cc(N(C)C(=O)c5cccc(C(F)(F)F)c5)ccc4Cl)c(=O)n(C)c3n2)c1 (stereo unspecified) [Type II inhibitor, 13] | 6.82 | 8.04
Cc1ccc(N(C)C(=O)c2cccc(C(F)(F)F)c2)cc1N1Cc2cnc(N)nc2N(C)C1=O [Type II inhibitor, 15] | < 5.30 | < 5.30
